According to patent publication US10988459B2 (priority 2015, dated 2021):
pKi: −log10 of the molar value. Where two headings read alike, the source gives them in different places.

Molecular target: human RIP1 kinase domain (2-375) (Homo sapiens (Human), UniProt Q13546)
Experiment: biochemical
Format: biochemical
Settings: 50 uM ATP
Method in brief: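 50 nM purified kinase domain from baculovirus-infected insect cells, incubated 2 h with compound in 50 mM Hepes pH 7.5, 30 mM MgCl2, 1 mM DTT, 50 uM ATP, 0.002% Brij-35, 0.5% DMSO. ADP formation read by Transcreener FP at 633 nm excitation. Ki^app fitted with the Morrison tight-binding equation.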

[1] = tight-binding apparent inhibition constant, human RIP1 kinase domain (2-375) 50 nM, 2 hours, read-out: Ki
[2] = Table 5, apparent Ki (Morrison tight-binding fit), 50 nM RIP1 kinase domain, 2 hours incubation, read-out: Ki
[3] = human RIP1 kinase domain (2-375), 2 hours incubation, Transcreener ADP assay, read-out: RIP1 Ki

Sequence of human RIP1 kinase domain (2-375) (Q13546 2-375): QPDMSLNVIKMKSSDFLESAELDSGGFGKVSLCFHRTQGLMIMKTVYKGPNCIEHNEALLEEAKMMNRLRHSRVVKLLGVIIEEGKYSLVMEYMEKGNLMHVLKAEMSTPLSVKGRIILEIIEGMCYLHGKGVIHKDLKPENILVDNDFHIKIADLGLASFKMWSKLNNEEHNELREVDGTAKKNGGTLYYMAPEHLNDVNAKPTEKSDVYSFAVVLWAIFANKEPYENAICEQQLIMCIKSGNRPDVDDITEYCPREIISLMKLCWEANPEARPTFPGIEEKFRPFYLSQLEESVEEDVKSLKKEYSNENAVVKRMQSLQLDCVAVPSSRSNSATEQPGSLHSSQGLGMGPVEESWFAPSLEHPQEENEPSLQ

Row | Structure (SMILES) | pKi [1] | other results
1 | Cc1cc2n(n1)CC[C@H](NC(=O)c1ncc3c(n1)C1(CCCOC1)OC3)C(=O)N2C (stereo partly drawn) [Example 544, N-[(6S)-2,4-dimethyl-5-oxo-7,8-dihydro-6H-pyrazolo[1,5-a][1,3]diazepin-6-yl]spiro[5H-furo[3,4-d]pyrimidine-7,3′-tetrahydropyran]-2-carboxamide] | 5.92 | 
2 | CN1C(=O)[C@H](NC(=O)c2ncn(Cc3ccccc3)n2)CCn2nc(CCCN3CCOCC3)cc21 (single isomer, unassigned) [Example 738] |  | pKi [2]: 5.40
3 | CN1C(=O)[C@@H](NC(=O)c2ncn(Cc3ccccc3)n2)CCn2ccnc21 [Example 151, (S)-1-benzyl-N-(9-methyl-8-oxo-6,7,8,9-tetrahydro-5H-imidazo[1,2-a][1,3]diazepin-7-yl)-1H-1,2,4-triazole-3-carboxamide] |  | pKi [3]: 7.58
4 | CN1C(=O)C(NC(=O)c2ncn(Cc3ccccc3)n2)CCn2nc(C3CCOCC3)cc21 (centres unmarked) [Example 234, 1-benzyl-N-(4-methyl-5-oxo-2-(tetrahydro-2H-pyran-4-yl)-5,6,7,8-tetrahydro-4H-pyrazolo[1,5-a][1,3]diazepin-6-yl)-1H-1,2,4-triazole-3-carboxamide] |  | pKi (human RIP1 kinase domain (2-375), Transcreener ADP assay, 2 hours incubation, read-out: RIP1 Ki): 6.70
5 | CN1C(=O)[C@@H](NC(=O)c2nnn(Cc3ccccc3)n2)CCn2nc(C3CC3)cc21 [Example 542] | 8.19 | 
6 | CN1C(=O)[C@@H](NC(=O)c2ncn(Cc3cccc(Cl)c3)n2)CCn2nc(C(F)(F)F)cc21 [Example 533] | 7.35 | 
7 | CN1C(=O)[C@@H](NC(=O)c2nc3n(n2)C(c2ccccc2)COC3)COc2ccccc21 (stereo partly drawn) [Example 123, N—((S)-5-methyl-4-oxo-2,3,4,5-tetrahydrobenzo[b][1,4]oxazepin-3-yl)-5-phenyl-5,6-dihydro-8H-[1,2,4]triazolo[5,1-c][1,4]oxazine-2-carboxamide] |  | pKi [3]: 6.57
8 | CN1C(=O)[C@@H](NC(=O)c2cc3c(cn2)CCCC3)COc2ccccc21 [Example 23, (S)—N-(5-methyl-4-oxo-2,3,4,5-tetrahydrobenzo[b][1,4]oxazepin-3-yl)-5,6,7,8-tetrahydroisoquinoline-3-carboxamide] |  | pKi (Table 1, apparent Ki (Morrison tight-binding fit), 50 nM RIP1 kinase domain, 2 hours incubation, read-out: RIP1 Ki): 5.70
9 | CN1C(=O)[C@@H](NC(=O)c2ncn(Cc3ccccc3)n2)CCn2nc(CCN3CC(F)C3)cc21 [Example 769] |  | pKi [2]: 6.63
10 | CN1C(=O)[C@@H](NC(=O)c2nc3cccc(-c4ccccc4)c3s2)COc2ccccc21 [Example 391, (S)—N-(5-methyl-4-oxo-2,3,4,5-tetrahydrobenzo[b][1,4]oxazepin-3-yl)-7-phenylbenzo[d]thiazole-2-carboxamide] | 7.18 | 

The next lines start with results.

Row | pKi [1] | Structure (SMILES) | other results
11 | 5.14 | Cc1cc2n(n1)CC[C@H](NC(=O)c1nc3n(n1)CCC31CCOCC1)C(=O)N2C [Example 635, N-[(6S)-2,4-dimethyl-5-oxo-7,8-dihydro-6H-pyrazolo[1,5-a][1,3]diazepin-6-yl]spiro[5,6-dihydropyrrolo[1,2-b][1,2,4]triazole-7,4′-tetrahydropyran]-2-carboxamide] | 
12 | 6.39 | Cc1cc2n(n1)CC[C@H](NC(=O)c1nc3n(n1)CCOC31CCCC1)C(=O)N2C [Example 567, N-[(6S)-2,4-dimethyl-5-oxo-7,8-dihydro-6H-pyrazolo[1,5-a][1,3]diazepin-6-yl]spiro[5,6-dihydro-[1,2,4]triazolo[5,1-c][1,4]oxazine-8,1′-cyclopentane]-2-carboxamide] | 
13 | 7.46 | CN1C(=O)[C@H](NC(=O)c2ncn(Cc3ccccc3F)n2)CCn2cncc21 [Example 599, 1-[(2-fluorophenyl)methyl]-N-(3R)-1-methyl-2-oxo-4,5-dihydro-3H-imidazo[1,5-a][1,3]diazepin-3-yl-1,2,4-triazole-3-carboxamide] | 
14 | 7.37 | CN1C(=O)[C@H](NC(=O)c2ncn(Cc3ccccc3F)n2)CCn2ccnc21 [Example 601, 1-[(2-fluorophenyl)methyl]-N-(7R)-9-methyl-8-oxo-6,7-dihydro-5H-imidazo[1,2-a][1,3]diazepin-7-yl-1,2,4-triazole-3-carboxamide] | 
